Experimental data taken from patent publication US5545625A, “Preventing conversion of citrulline to argininosuccinate to limit pathological nitric oxide overproduction” (The Medical College of Wisconsin Research Foundation, Inc., priority 1994, dated 1996).

Test system: human treated with interleukin-2
Assay: Hypotension during interleukin-2 treatment for renal cell cancer (Examples VIII, XIV)
Format: in vivo
Conditions: interleukin-2 1×10^6 units, 5 days; mithramycin 25 μg/kg intravenously as pretreatment and at 24 hour intervals
Method: A human is treated for renal cell cancer with interleukin-2 (1×10^6 units) for 5 days. By the fifth day, the patient's blood pressure falls to 80/55 mm Hg and the patient encounters nausea and extreme discomfort. Three weeks later, the patient returns for a second course of interleukin-2 treatment but is pretreated (before commencing interleukin-2 infusion) with mithramycin (25 μg/kg) and is treated at 24 hour intervals thereafter with 25 μg/kg of mithramycin. The mithramycin is administered intravenously in 50 ml saline over a 3 to 6 hour interval.
A human is treated for renal cell cancer with interleukin-2 (1×10^6) for 5 days. Simultaneously with commencing interleukin-2 infusion, L-thiocitrulline (10 mg/kg/day) is administered.

COC(C(=O)C(O)C(C)O)C1Cc2cc3cc(OC4CC(OC5CC(O)C(O)C(C)O5)C(O)C(C)O4)c(C)c(O)c3c(O)c2C(=O)C1OC1CC(OC2CC(OC3CC(C)(O)C(O)C(C)O3)C(O)C(C)O2)C(O)C(C)O1 (stereo not shown) [mithramycin]
development of hypotension: hypotension does not develop
